These results are taken from ChEMBL document CHEMBL5120960, “Unveiling the Structure-Activity Relationships at the Orthosteric Binding Site of P2X Ion Channels: The Route to Selectivity” (J Med Chem, 2022).

Common to all, as to format: cell-based
For one assay, the target named is T1, P2X purinoceptor 3 (Homo sapiens, UniProt P56373).
T1 sequence (P56373 whole entry): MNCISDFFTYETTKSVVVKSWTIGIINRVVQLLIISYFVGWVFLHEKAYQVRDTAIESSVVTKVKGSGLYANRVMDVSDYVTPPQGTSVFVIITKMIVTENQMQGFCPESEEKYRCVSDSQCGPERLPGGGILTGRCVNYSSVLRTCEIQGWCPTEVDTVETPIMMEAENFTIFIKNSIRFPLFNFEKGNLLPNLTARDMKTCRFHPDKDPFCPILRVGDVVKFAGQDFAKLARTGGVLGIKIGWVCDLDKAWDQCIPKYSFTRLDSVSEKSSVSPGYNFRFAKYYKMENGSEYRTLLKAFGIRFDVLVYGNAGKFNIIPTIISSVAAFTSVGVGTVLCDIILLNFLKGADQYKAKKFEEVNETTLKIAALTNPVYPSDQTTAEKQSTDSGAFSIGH
The assay can be described thus: […] activity at human P2X3R expressing CHO cells assessed as reduction in intracellular Ca2+ influx pretreated with Fluo-4 for 1 hr followed by compound addition and further incubated for 30 mins in presence of ATP by multimode plate reader analysis.

Assay [1] concerns the target T2, P2X purinoceptor 7 (Homo sapiens, UniProt Q99572).
T2 sequence (Q99572 whole entry): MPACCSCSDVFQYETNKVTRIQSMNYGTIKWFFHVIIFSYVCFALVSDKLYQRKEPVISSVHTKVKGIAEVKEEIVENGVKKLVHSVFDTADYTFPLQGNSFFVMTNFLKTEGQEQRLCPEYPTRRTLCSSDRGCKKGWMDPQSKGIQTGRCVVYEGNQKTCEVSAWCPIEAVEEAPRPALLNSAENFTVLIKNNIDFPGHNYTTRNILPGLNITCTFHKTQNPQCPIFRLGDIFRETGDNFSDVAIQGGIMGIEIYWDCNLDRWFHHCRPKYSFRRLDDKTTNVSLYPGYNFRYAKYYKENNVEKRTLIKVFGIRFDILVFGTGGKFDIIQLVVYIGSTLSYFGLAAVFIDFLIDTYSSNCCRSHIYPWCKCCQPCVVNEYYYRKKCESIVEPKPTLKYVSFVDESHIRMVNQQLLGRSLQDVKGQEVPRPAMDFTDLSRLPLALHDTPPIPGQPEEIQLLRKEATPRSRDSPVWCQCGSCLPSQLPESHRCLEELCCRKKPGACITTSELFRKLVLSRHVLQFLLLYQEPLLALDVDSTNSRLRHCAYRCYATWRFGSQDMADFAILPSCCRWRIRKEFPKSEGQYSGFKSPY
The assay can be described thus: […] activity at human P2X7R expressed in HEK293 cells assessed as reduction in YO-PRO-1 iodide dye uptake preincubated for 30 mins followed by YO-PRO-1 iodide addition and measured after 2 hrs by fluorescence based multimode plate reader analysis.

A further assay has as its target T3, P2X purinoceptor 2 (Homo sapiens, UniProt Q9UBL9).
T3 sequence (Q9UBL9 whole entry): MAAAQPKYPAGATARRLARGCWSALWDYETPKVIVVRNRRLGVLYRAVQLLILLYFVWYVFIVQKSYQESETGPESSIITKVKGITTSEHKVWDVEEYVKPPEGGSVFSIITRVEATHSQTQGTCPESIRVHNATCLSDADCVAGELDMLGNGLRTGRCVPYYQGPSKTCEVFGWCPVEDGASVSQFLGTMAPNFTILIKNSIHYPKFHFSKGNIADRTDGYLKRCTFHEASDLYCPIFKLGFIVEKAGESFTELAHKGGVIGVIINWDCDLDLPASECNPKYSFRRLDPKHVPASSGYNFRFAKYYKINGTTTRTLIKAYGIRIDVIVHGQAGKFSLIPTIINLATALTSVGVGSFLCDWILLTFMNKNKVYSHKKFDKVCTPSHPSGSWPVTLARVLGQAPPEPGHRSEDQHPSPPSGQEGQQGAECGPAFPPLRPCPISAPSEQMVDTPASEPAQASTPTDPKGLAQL
As to the kind of experiment: […] activity at human P2X2R expressing CHO cells assessed as reduction in intracellular Ca2+ influx pretreated with Fluo-4 for 1 hr followed by compound addition and further incubated for 30 mins in presence of ATP by multimode plate reader analysis.

The target in the next assay is T4, P2X purinoceptor 4 (Homo sapiens, UniProt Q99571).
T4 sequence (Q99571 whole entry): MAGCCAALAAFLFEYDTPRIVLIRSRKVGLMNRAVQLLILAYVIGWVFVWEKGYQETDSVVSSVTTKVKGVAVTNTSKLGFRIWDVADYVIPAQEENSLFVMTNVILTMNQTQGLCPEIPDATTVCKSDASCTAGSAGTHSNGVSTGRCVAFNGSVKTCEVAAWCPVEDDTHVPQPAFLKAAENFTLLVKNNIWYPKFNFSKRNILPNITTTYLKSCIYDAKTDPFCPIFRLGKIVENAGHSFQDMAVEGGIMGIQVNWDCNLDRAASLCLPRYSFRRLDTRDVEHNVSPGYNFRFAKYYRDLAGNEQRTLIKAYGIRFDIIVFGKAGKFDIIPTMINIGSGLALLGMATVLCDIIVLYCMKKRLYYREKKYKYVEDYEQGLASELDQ
The assay can be described thus: […] activity at human P2X4R expressing HEK293 cells assessed as reduction in intracellular Ca2+ influx pretreated with Fluo-4 for 1 hr followed by compound addition and further incubated for 30 mins in presence of ATP by multimode plate reader analysis.

For assay [2], the target named is T5, P2X2/P2X3 heterotrimeric receptor (Homo sapiens, UniProt P56373+Q9UBL9).
T5 sequence (Q9UBL9 whole entry): T3 sequence (Q9UBL9 whole entry)
T5 sequence (P56373 whole entry): T1 sequence (P56373 whole entry)
The assay can be described thus: […] activity at human P2X2R/P2X3R expressing CHO cells assessed as reduction in intracellular Ca2+ influx pretreated with Fluo-4 for 1 hr followed by compound addition and further incubated for 30 mins in presence of ATP by multimode plate reader analysis.

Another assay addresses T6, P2X purinoceptor 1 (Homo sapiens, UniProt P51575).
T6 sequence (P51575 whole entry): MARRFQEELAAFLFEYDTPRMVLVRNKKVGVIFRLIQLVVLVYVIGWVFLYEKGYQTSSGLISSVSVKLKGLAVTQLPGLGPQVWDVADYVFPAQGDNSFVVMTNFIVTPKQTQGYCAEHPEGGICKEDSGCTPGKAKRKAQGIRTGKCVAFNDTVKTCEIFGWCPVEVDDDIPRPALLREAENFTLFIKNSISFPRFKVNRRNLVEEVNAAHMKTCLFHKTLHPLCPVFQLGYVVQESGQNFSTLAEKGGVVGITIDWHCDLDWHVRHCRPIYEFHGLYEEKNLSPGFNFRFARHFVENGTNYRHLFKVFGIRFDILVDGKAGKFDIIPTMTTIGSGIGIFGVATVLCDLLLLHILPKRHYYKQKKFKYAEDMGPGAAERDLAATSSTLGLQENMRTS
The assay can be described thus: […] activity at human P2X1R expressing CHO cells assessed as reduction in intracellular Ca2+ influx pretreated with Fluo-4 for 1 hr followed by compound addition and further incubated for 30 mins in presence of ATP by multimode plate reader analysis.

Assay [3] deals with T2, P2X purinoceptor 7. As to the kind of experiment: […] activity at human P2X7R expressing HEK293 cells assessed as reduction in intracellular Ca2+ influx pretreated with Fluo-4 for 1 hr followed by compound addition and further incubated for 30 mins in presence of ATP by multimode plate reader analysis.

A word on the IC50: it is the concentration that inhibits the measured activity by half. Consider `CNc1ncnc2c1ncn2[C@@H]1O[C@H](COP(=O)(O)OP(=O)(O)OP(=O)(O)O)[C@@H](O)[C@H]1O`, for which the IC50 at P2X purinoceptor 3 is 1.29 µM; at P2X purinoceptor 7 [1], > 100 µM; on P2X purinoceptor 2, > 100 µM; at P2X purinoceptor 4, > 100 µM; in assay [2] it was 0.263 µM; at P2X purinoceptor 1 it was > 100 µM. For the same compound, the IC50 at P2X purinoceptor 7 [3] was > 100 µM.

`O=P(O)(O)OP(=O)(O)OP(=O)(O)OC[C@H]1O[C@@H](n2cnc3c(Nc4ccccc4)ncnc32)[C@H](O)[C@@H]1O`: the IC50 was 0.209 µM at P2X purinoceptor 3; > 100 µM at P2X purinoceptor 7 [1]; 0.00372 µM on P2X purinoceptor 2; 0.891 µM at P2X purinoceptor 4; 0.158 µM in assay [2]; > 100 µM on P2X purinoceptor 1. Besides, the IC50 on P2X purinoceptor 7 [3] was > 100 µM.

`O=P(O)(O)OP(=O)(O)OP(=O)(O)OC[C@H]1O[C@@H](n2cnc3c2ncn2ccnc32)[C@H](O)[C@@H]1O`: the IC50 at P2X purinoceptor 3 is 1 µM; at P2X purinoceptor 7 [1], > 100 µM; at P2X purinoceptor 2, 0.417 µM; at P2X purinoceptor 4 it was > 100 µM; in assay [2], 0.282 µM; on P2X purinoceptor 1, > 100 µM. Further, on P2X purinoceptor 7 [3], the 50% inhibitory concentration (IC50) is > 100 µM.

With `CO[C@@H]1[C@H](O)[C@@H](COP(=O)(O)OP(=O)(O)OP(=O)(O)O)O[C@H]1n1cnc2c(N)ncnc21`, the concentration for half-maximal inhibition (IC50) (at P2X purinoceptor 3; on P2X purinoceptor 7 [1]; on P2X purinoceptor 2; at P2X purinoceptor 4; in assay [2]; on P2X purinoceptor 1) was > 100 µM each time. For the same compound, on P2X purinoceptor 7 [3], the IC50 was > 100 µM.

Turning to `Nc1ncnc2c1ncn2[C@@H]1O[C@H](COP(=O)(O)OP(=O)(O)OP(=O)(O)O)[C@@H](O)[C@H]1F`, the IC50 at P2X purinoceptor 3 was 10.5 µM; at P2X purinoceptor 7 [1], > 100 µM; at P2X purinoceptor 2, 5.62 µM; on P2X purinoceptor 4, 2.75 µM; in assay [2] it was 5.37 µM; on P2X purinoceptor 1, > 100 µM. In addition, the IC50 at P2X purinoceptor 7 [3] was > 100 µM.

`O=P(O)(O)OP(=O)(O)OP(=O)(O)OC[C@H]1O[C@@H](n2cnc3c(S)ncnc32)[C@H](O)[C@@H]1O`: the IC50 is 1.51 µM on P2X purinoceptor 3; > 100 µM on P2X purinoceptor 7 [1]; > 100 µM on P2X purinoceptor 2; > 100 µM at P2X purinoceptor 4; 0.00832 µM in assay [2]; 1.51 µM on P2X purinoceptor 1. The half-inhibitory concentration (IC50) at P2X purinoceptor 7 [3] was > 100 µM.

Regarding `Nc1ncnc2c1ncn2[C@@H]1O[C@H](COP(=O)(O)OP(=O)(O)OP(=O)(O)O)[C@@H](O)[C@H]1N`, the IC50 on P2X purinoceptor 3 was 4.27 µM; at P2X purinoceptor 7 [1], > 100 µM; at P2X purinoceptor 2, > 100 µM; on P2X purinoceptor 4 it was > 100 µM; in assay [2], 0.363 µM; on P2X purinoceptor 1 it was 6.46 µM. On P2X purinoceptor 7 [3], the IC50 was > 100 µM.

`Nc1ncnc2c1ncn2[C@@H]1O[C@H](COP(=O)(O)OP(=O)(O)OP(=O)(O)O)[C@@H](O)[C@@H]1O`: the IC50 is > 100 µM on P2X purinoceptor 3; > 100 µM on P2X purinoceptor 7 [1]; > 100 µM on P2X purinoceptor 2; 10.5 µM at P2X purinoceptor 4; > 100 µM in assay [2]; > 100 µM on P2X purinoceptor 1. The IC50 at P2X purinoceptor 7 [3] is > 100 µM.

For `[N-]=[N+]=Nc1nc2c(N)ncnc2n1[C@@H]1O[C@H](COP(=O)(O)OP(=O)(O)OP(=O)(O)O)[C@@H](O)[C@H]1O`, the IC50 (at P2X purinoceptor 3; on P2X purinoceptor 7 [1]; on P2X purinoceptor 2; at P2X purinoceptor 4; in assay [2]; at P2X purinoceptor 1) was > 100 µM in each case. Also, at P2X purinoceptor 7 [3], the IC50 is > 100 µM.

As for `O=P(O)(O)OP(=O)(O)OP(=O)(O)OC[C@H]1O[C@@H](n2cnc3c(Cl)ncnc32)[C@H](O)[C@@H]1O`, the IC50 was 0.741 µM at P2X purinoceptor 3; > 100 µM on P2X purinoceptor 7 [1]; 0.0871 µM at P2X purinoceptor 2; > 100 µM at P2X purinoceptor 4; 0.129 µM in assay [2]; 0.00355 µM at P2X purinoceptor 1. Moreover, the IC50 on P2X purinoceptor 7 [3] was > 100 µM.

Regarding `O=P(O)(O)OP(=O)(O)OP(=O)(O)OC[C@H]1O[C@@H](n2cnc3c(NCc4ccccc4)ncnc32)[C@H](O)[C@@H]1O`, the IC50 on P2X purinoceptor 3 is > 100 µM; at P2X purinoceptor 7 [1], > 100 µM; at P2X purinoceptor 2, 3.98 µM; at P2X purinoceptor 4 it was > 100 µM; in assay [2], 2.69 µM; on P2X purinoceptor 1, > 100 µM. Further, the IC50 at P2X purinoceptor 7 [3] is > 100 µM.

Regarding `CCCCNc1ncnc2c1ncn2[C@@H]1O[C@H](COP(=O)(O)OP(=O)(O)OP(=O)(O)O)[C@@H](O)[C@H]1O`, the IC50 at P2X purinoceptor 3 is 30.2 µM; at P2X purinoceptor 7 [1] it was > 100 µM; on P2X purinoceptor 2 it was > 100 µM; at P2X purinoceptor 4, > 100 µM; in assay [2], 0.692 µM; at P2X purinoceptor 1, > 100 µM. In addition, the half-inhibitory concentration (IC50) on P2X purinoceptor 7 [3] is > 100 µM.

For the compound `O=c1[nH]c2cncnc2n1[C@@H]1O[C@H](COP(=O)(O)OP(=O)(O)OP(=O)(O)O)[C@@H](O)[C@H]1O`, the IC50 on P2X purinoceptor 3 is 11 µM; at P2X purinoceptor 7 [1], > 100 µM; on P2X purinoceptor 2, > 100 µM; at P2X purinoceptor 4, > 100 µM; in assay [2], > 100 µM; on P2X purinoceptor 1 it was > 100 µM. Also, the IC50 at P2X purinoceptor 7 [3] was > 100 µM.
